US5286729A, “Angiotensin II receptor blocking 2,3,6 substituted quinazolinones” (American Cyanamid Company, priority 1993, dated 1994)
Where “and” joins values, the source holds several entries; their conditions need not be identical. Equal values may be shown once.

Tested on: ANGIOTENSIN II (AII) VASOPRESSOR RESPONSE
Assay: AII Challenge: % inhibition (angiotensin blockage) of angiotensin II vasopressor response in conscious SHR
Assay type: in vivo, rat (Male Okamoto-Aoki SHR)
Conditions: for Response After AII / Change / Control Before AII: individual rats
Source text: By administering a compound of this invention to a rat, and then challenging with angiotensin II, a blockage of the vasopressor response is realized. The results of this test on representative compounds of this invention are shown in Table V. Conscious Male Okamoto-Aoki SHR, 16-20 weeks old, weighing approximately 330 g are purchased from Charles River Labs (Wilmington, MA). Conscious rats are restrained in a supine position with elastic tape. The area at the base of the tail is locally anesthetized by subcutaneous infiltration with 2% procaine. The central caudal artery and vein are isolated, and a cannula made of polyethylene (PE) 10-20 tubing (fused together by heat) is passed into the lower abdominal aorta and vena cava, respectively. The cannula is secured, heparinized (1,000 I.U./ml), sealed and the wound is closed. The animals are placed in plastic restraining cages in an upright position. The cannula is attached to a Statham P23Db pressure transducer, and pulsatile blood pressure is recorded to 10-15 minutes with a Gould Brush recorder. (Chan et al., (Drug Development Res., 18:75-94, 1989). Angiotensin II (human sequence, Sigma Chem. Co., St. Louis, MO) of 0.05 and 0.1 ug/kg i.v. is injected into all rats (predosing repsonse). Then a test compound, vehicle or a known angiotensin II antagonist is administered i.v., i.p. or orally to each set of rats. The two doses of angiotensin II are given to each rat again at 30, 60, 90, 120, 180, 240 and 300 minutes post dosing the compound or vehicle. The vasopressor response of angiotensin II is measured for the increase in systolic blood pressure in mmHg. The percentage of antagonism or blockade of the vasopressor response of angiotensin II by a compound is calculated using the vasopressor response (increase in systolic blood pressure) of angiotensin II of each rat predosing the compound as 100%. A compound is considered active if at 30 mg/kg i.v. it antagonized at least 50% of the response.

[1] = 5 mg/kg IV, AII 0.05 mcg/kg IV, 30 min post dose
[2] = 5 mg/kg IV, AII 0.05 mcg/kg IV, 30 min post dose, monohydrochloride
[3] = 5 mg/kg IV, AII 0.05 mcg/kg IV, 60 min post dose
[4] = 5 mg/kg IV, AII 0.05 mcg/kg IV, 60 min post dose, monohydrochloride
[5] = 5 mg/kg IV, AII 0.05 mcg/kg IV, 90 min post dose
[6] = 5 mg/kg IV, AII 0.05 mcg/kg IV, 90 min post dose, monohydrochloride
[7] = 5 mg/kg IV, AII 0.05 mcg/kg IV, 120 min post dose
[8] = 5 mg/kg IV, AII 0.05 mcg/kg IV, 120 min post dose, monohydrochloride
[9] = 5 mg/kg IV, AII 0.05 mcg/kg IV, 180 min post dose
[10] = 5 mg/kg IV, AII 0.05 mcg/kg IV, 180 min post dose, monohydrochloride
[11] = 5 mg/kg IV, AII 0.1 mcg/kg IV, 30 min post dose
[12] = 5 mg/kg IV, AII 0.1 mcg/kg IV, 30 min post dose, monohydrochloride
[13] = 5 mg/kg IV, AII 0.1 mcg/kg IV, 60 min post dose
[14] = 5 mg/kg IV, AII 0.1 mcg/kg IV, 60 min post dose, monohydrochloride
[15] = 5 mg/kg IV, AII 0.1 mcg/kg IV, 90 min post dose
[16] = 5 mg/kg IV, AII 0.1 mcg/kg IV, 90 min post dose, monohydrochloride
[17] = 5 mg/kg IV, AII 0.1 mcg/kg IV, 120 min post dose
[18] = 5 mg/kg IV, AII 0.1 mcg/kg IV, 120 min post dose, monohydrochloride
[19] = 5 mg/kg IV, AII 0.1 mcg/kg IV, 180 min post dose
[20] = 5 mg/kg IV, AII 0.1 mcg/kg IV, 180 min post dose, monohydrochloride
[21] = 10 mg/kg P.O., AII 0.05 mcg/kg IV, 30 min post dose
[22] = 10 mg/kg P.O., AII 0.05 mcg/kg IV, 30 min post dose, monohydrochloride
[23] = 10 mg/kg P.O., AII 0.05 mcg/kg IV, 60 min post dose
[24] = 10 mg/kg P.O., AII 0.05 mcg/kg IV, 60 min post dose, monohydrochloride
[25] = 10 mg/kg P.O., AII 0.05 mcg/kg IV, 90 min post dose
[26] = 10 mg/kg P.O., AII 0.05 mcg/kg IV, 90 min post dose, monohydrochloride
[27] = 10 mg/kg P.O., AII 0.05 mcg/kg IV, 120 min post dose
[28] = 10 mg/kg P.O., AII 0.05 mcg/kg IV, 120 min post dose, monohydrochloride
[29] = 10 mg/kg P.O., AII 0.05 mcg/kg IV, 180 min post dose
[30] = 10 mg/kg P.O., AII 0.05 mcg/kg IV, 180 min post dose, monohydrochloride
[31] = 10 mg/kg P.O., AII 0.1 mcg/kg IV, 30 min post dose
[32] = 10 mg/kg P.O., AII 0.1 mcg/kg IV, 30 min post dose, monohydrochloride
[33] = 10 mg/kg P.O., AII 0.1 mcg/kg IV, 60 min post dose
[34] = 10 mg/kg P.O., AII 0.1 mcg/kg IV, 90 min post dose
[35] = 10 mg/kg P.O., AII 0.1 mcg/kg IV, 120 min post dose
[36] = 10 mg/kg P.O., AII 0.1 mcg/kg IV, 120 min post dose, monohydrochloride
[37] = 10 mg/kg P.O., AII 0.1 mcg/kg IV, 180 min post dose
[38] = 10 mg/kg P.O., AII 0.1 mcg/kg IV, 180 min post dose, monohydrochloride

CCCCc1nc2ccc(COc3ccccn3)cc2c(=O)n1Cc1ccc(-c2ccccc2-c2nnn[nH]2)cc1.Cl [Example 12, 2-Butyl-6-[(2-pyridinyloxy)methyl]-3-[[2'-(1H-tetrazol-5-yl)[1,1'-biphenyl]-4-yl]methyl]-4(3H)-quinazolinone monohydrochloride]
% Inhibition [1]: 62% | Average Change [1]: 12.5 mmHg | Response After AII [1]: 195 mmHg | Change [2]: 10 mmHg and 15 mmHg | Control Before AII [2]: 185 mmHg and 180 mmHg | % Inhibition [3]: 92% | Average Change [3]: 2.5 mmHg | Control Before AII [3]: 175 mmHg | Response After AII [3]: 180 mmHg | Change [4]: 0 mmHg and 5 mmHg | Response After AII [4]: 175 mmHg | % Inhibition [5]: 69% | Average Change [5]: 10 mmHg | Change [5]: 10 mmHg | Response After AII [5]: 170 mmHg | Control Before AII [6]: 160 mmHg and 165 mmHg | Response After AII [6]: 175 mmHg | % Inhibition [7]: 77% | Average Change [7]: 7.5 mmHg | Control Before AII [7]: 165 mmHg | Response After AII [7]: 170 mmHg | Change [8]: 10 mmHg and 5 mmHg | Response After AII [8]: 175 mmHg | % Inhibition [9]: 66% | Average Change [9]: 11 mmHg | Change [10]: 7 mmHg and 15 mmHg | Control Before AII [10]: 165 mmHg and 155 mmHg | Response After AII [10]: 172 mmHg and 170 mmHg | % Inhibition [11]: 65% | Average Change [11]: 15 mmHg | Control Before AII [11]: 185 mmHg | Response After AII [11]: 195 mmHg | Change [12]: 10 mmHg and 20 mmHg | Control Before AII [12]: 175 mmHg | % Inhibition [13]: 71% | Average Change [13]: 12.5 mmHg | Response After AII [13]: 185 mmHg | Change [14]: 15 mmHg and 10 mmHg | Control Before AII [14]: 170 mmHg and 175 mmHg | % Inhibition [15]: 76% | Average Change [15]: 10 mmHg | Change [15]: 10 mmHg | Control Before AII [16]: 160 mmHg and 170 mmHg | Response After AII [16]: 170 mmHg and 180 mmHg | % Inhibition [17]: 65% | Average Change [17]: 15 mmHg | Control Before AII [17]: 165 mmHg | Change [18]: 20 mmHg and 10 mmHg | Response After AII [18]: 185 mmHg and 175 mmHg | % Inhibition [19]: 51% | Average Change [19]: 21 mmHg | Control Before AII [19]: 160 mmHg | Change [20]: 20 mmHg and 22 mmHg | Response After AII [20]: 180 mmHg and 182 mmHg | % Inhibition [21]: 56% | Average Change [21]: 17.5 mmHg | Control Before AII [21]: 185 mmHg | Response After AII [21]: 210 mmHg | Change [22]: 25 mmHg and 10 mmHg | Control Before AII [22]: 200 mmHg | % Inhibition [23]: 44% | Average Change [23]: 22.5 mmHg | Control Before AII [23]: 185 mmHg | Response After AII [23]: 220 mmHg | Change [24]: 25 mmHg and 20 mmHg | Control Before AII [24]: 195 mmHg | Response After AII [24]: 205 mmHg | % Inhibition [25]: 59% | Average Change [25]: 16.5 mmHg | Control Before AII [25]: 195 mmHg | Change [26]: 30 mmHg and 3 mmHg | Control Before AII [26]: 190 mmHg | Response After AII [26]: 220 mmHg and 198 mmHg | % Inhibition [27]: 69% | Average Change [27]: 12.5 mmHg | Control Before AII [27]: 210 mmHg | Response After AII [27]: 230 mmHg | Change [28]: 20 mmHg and 5 mmHg | Response After AII [28]: 215 mmHg | % Inhibition [29]: 50% | Average Change [29]: 20 mmHg | Control Before AII [29]: 185 mmHg | Change [30]: 25 mmHg and 15 mmHg | Response After AII [30]: 210 mmHg and 200 mmHg | % Inhibition [31]: 34% | Average Change [31]: 27.5 mmHg | Response After AII [31]: 220 mmHg | Change [32]: 35 mmHg and 20 mmHg | Control Before AII [32]: 185 mmHg and 200 mmHg | % Inhibition [33]: 16% | Average Change [33]: 35 mmHg | Change [33]: 35 mmHg | Control Before AII [33]: 185 mmHg | Response After AII [33]: 220 mmHg | % Inhibition [34]: 28% | Average Change [34]: 30 mmHg | Change [34]: 30 mmHg | Control Before AII [34]: 190 mmHg | Response After AII [34]: 220 mmHg | % Inhibition [35]: 52% | Average Change [35]: 20 mmHg | Control Before AII [35]: 205 mmHg | Response After AII [35]: 235 mmHg | Change [36]: 30 mmHg and 10 mmHg | Response After AII [36]: 215 mmHg | % Inhibition [37]: 40% | Average Change [37]: 25 mmHg | Response After AII [37]: 210 mmHg | Change [38]: 35 mmHg and 15 mmHg | Control Before AII [38]: 190 mmHg and 195 mmHg | Response After AII [38]: 225 mmHg
